{"source": "patent US10231980B2", "about": "“Cortexolone 17alpha-benzoate for use in the treatment of tumours” (COSMO TECHNOLOGIES LTD., priority 2014, dated 2019)", "key": {"[1]": {"system": "LNCaP (AR+)", "experiment": "ATP-dependent proliferation assay with 10 nM DHT, prostate cancer cells (Examples 1, 2)", "assay_type": "cell-based, human", "details": "LNCaP, read-out: IC50", "description": "(§1) The experiment was performed to test and to define the antitumor activity in vitro of cortexolone 17α-benzoate on LNCaP (AR^+) and PC3 (AR^−), representative of Prostatic cancer cell lines with Androgen receptor positive or negative expression, respectively. The experimental method consisted of: • 1. […] After 24 hrs, 10 nM DHT (dihydrotestosterone) with or without anti-androgen compounds, or DMSO vehicle (negative control) was added to the cultures. • 3.\n(§2) Data from Experiment 1 was fitted through sigmoidal dose response curves and analyzed using Prizm statistical analysis software. […] The results from 2 sets of experiments follow.\n(§3) The experiment was performed to test and to define antitumor activity in vitro of cortexolone 17α-valerate-21-propionate on LNCaP (AR^+) and PC3 (AR^−), representative of Prostatic cancer cell lines with Androgen receptor positive or negative expression, respectively. The experimental method consisted of: • 1. […] After 24 hours, 10 nM DHT (dihydrotestosterone) with or without anti-androgen compounds, or DMSO vehicle (negative control) was added to the cultures. • 3."}, "[2]": {"system": "PC3 (AR−)", "experiment": "ATP-dependent proliferation assay with 10 nM DHT, prostate cancer cells (Examples 1, 2)", "assay_type": "cell-based, human", "details": "PC3, read-out: IC50", "description": "as §1, §2, §3"}, "[3]": {"system": "MiaPaca2 (AR low)", "experiment": "ATP-dependent proliferation assay with 10 nM DHT, pancreatic cancer cells (Examples 3, 4, 7)", "details": "for TI on Resting PBMC: IC50 resting PBMC / IC50 MiaPaca2; for TI on Stimulated PBMC: IC50 stimulated PBMC / IC50 MiaPaca2; for IC50: MiaPaca2", "description": "(§4) The experimental method consisted of: • 1. […] After 24 hrs, 10 nM DHT (dihydrotestosterone) with or without anti-androgen compounds, or DMSO vehicle (negative control) was added to the cultures. • 3.\n(§5) Data from Experiment 1 were fitted through sigmoidal dose response curves and analyzed using Prizm statistical analysis software. […] The results from 2 sets of experiments follow.\n(§6) Data from Experiment 1 was fitted through sigmoidal dose response curves and analyzed using Prizm statistical analysis software."}, "[4]": {"system": "Panc1 (AR+)", "experiment": "ATP-dependent proliferation assay with 10 nM DHT, pancreatic cancer cells (Examples 3, 4, 7)", "details": "for TI on Resting PBMC: IC50 resting PBMC / IC50 Panc1; for TI on Stimulated PBMC: IC50 stimulated PBMC / IC50 Panc1; for IC50: Panc1", "description": "as §4, §5, §6"}, "[5]": {"system": "stimulated PBMC", "experiment": "IC50 on stimulated (actively dividing) PBMC", "assay_type": "cell-based, human", "description": "(§7) The compound toxicity was determined as follow:\n(§8) Therapeutic Index=Safety/Potency=IC50 stimulated PBMC/IC50 cancer cell"}, "[6]": {"system": "resting PBMC", "experiment": "IC50 on resting (quiescent) PBMC", "assay_type": "cell-based, human", "details": "read-out: IC50 on Resting PBMC", "quoted_text": "The IC50 in PBMCs were tested in 2 different activation status: • stimulated—actively dividing cells • resting—quiescent, non-dividing cells\nThe IC50 in PBMCs were tested in 2 different activation status: • Stimulated—actively dividing cells • Resting—quiescent, non-dividing cells.\nIC50 of the compounds was determined on fresh cells isolated from human blood (PBMC)."}, "[7]": {"system": "HT29", "experiment": "MTT colorimetric assay on epithelial intestinal cancer cells", "assay_type": "cell-based", "details": "for Therapeutic Index (TI), Resting PBMC: IC50 resting PBMC / IC50 HT29; for Therapeutic Index (TI), Stimulated PBMC: IC50 stimulated PBMC / IC50 HT29"}, "[8]": {"system": "LNCaP", "experiment": "ATP-dependent cell viability assay (Cell Titer Glo), Example 12", "details": "LNCaP", "from_the_text": "(§9) Data shown in Table I were fitted through sigmoidal dose response curves and analyzed using Prizm statistical."}, "[9]": {"system": "MiaPaca2", "experiment": "ATP-dependent cell viability assay (Cell Titer Glo), Example 12", "details": "MiaPaca2", "from_the_text": "as §9"}, "[10]": {"system": "PC3", "experiment": "ATP-dependent cell viability assay (Cell Titer Glo), Example 12", "details": "PC3", "from_the_text": "as §9"}, "[11]": {"system": "Panc1", "experiment": "ATP-dependent cell viability assay (Cell Titer Glo), Example 12", "details": "Panc1", "from_the_text": "as §9"}, "[12]": {"system": "BxPC3", "experiment": "In vitro proliferation, larger panel (Example 14)", "details": "BxPC3", "from_the_text": "as §9"}, "[13]": {"system": "MCF7", "experiment": "In vitro proliferation / cytotoxic assay on breast cancer cells (Examples 14, 25)", "details": "MCF7"}, "[14]": {"system": "7 cancer cell lines", "experiment": "Therapeutic index over a panel of cancer cell lines", "assay_type": "cell-based", "details": "average over the cancer cell lines of Table VII", "description": "as §7, §8"}, "[15]": {"system": "stimulated PBMC", "experiment": "IC50 on stimulated (actively dividing) PBMC", "assay_type": "cell-based, human", "details": "PBMC Stim; Table IV"}, "[16]": {"details": "Experiment 1, sigmoidal dose response fit, 10 nM DHT, 3 days"}, "[17]": {"details": "Experiment 2, nonlinear regression least squares fit, additional experiments"}, "[18]": {"details": "Experiment 1, 0 = higher toxicity in PBMC"}, "[19]": {"details": "Tables I and II, titrated 3 uM to 200 uM, 3 days"}, "[20]": {"details": "read-out: In vitro proliferation IC50, Table IV"}}, "note": "Like-named read-outs stand apart in the source and are kept apart here.", "data": [{"smiles": "CCCCC(=O)O[C@]1(C(=O)COC(=O)CC)CC[C@H]2[C@@H]3CCC4=CC(=O)CC[C@]4(C)[C@H]3CC[C@@]21C", "note": "[CB-03-10, cortexolone 17α-valerate-21-propionate]", "values": [{"measurement": "IC50", "setting": "[1]; [16]", "value": 13, "unit": "µM"}, {"measurement": "IC50", "setting": "[1]; [17]", "value": 10, "unit": "µM"}, {"measurement": "IC50", "setting": "[2]; [16]", "value": 55, "unit": "µM"}, {"measurement": "IC50", "setting": "[2]; [17]", "value": 50, "unit": "µM"}, {"measurement": "TI on Resting PBMC", "setting": "[3]; [18]", "value": 3}, {"measurement": "TI on Resting PBMC", "setting": "[3]; Experiment 2", "value": 3}, {"measurement": "TI on Stimulated PBMC", "setting": "[3]; [18]", "value": 3}, {"measurement": "TI on Stimulated PBMC", "setting": "[3]; Experiment 2", "value": 3}, {"measurement": "IC50", "setting": "[3]; Example 7, Experiment 1", "value": 34, "unit": "µM"}, {"measurement": "IC50", "setting": "[3]; Example 7, Experiment 2", "value": 37, "unit": "µM"}, {"measurement": "IC50", "setting": "[3]; [16]", "value": 43, "unit": "µM"}, {"measurement": "IC50", "setting": "[3]; [17]", "value": 37, "unit": "µM"}, {"measurement": "TI on Resting PBMC", "setting": "[4]; [18]", "value": 2}, {"measurement": "TI on Resting PBMC", "setting": "[4]; Experiment 2", "value": 2}, {"measurement": "TI on Stimulated PBMC", "setting": "[4]; [18]", "value": 2}, {"measurement": "TI on Stimulated PBMC", "setting": "[4]; Experiment 2", "value": 2}, {"measurement": "IC50", "setting": "[4]; Example 7, Experiment 1", "value": 68, "unit": "µM"}, {"measurement": "IC50", "setting": "[4]; Example 7, Experiment 2", "value": 60, "unit": "µM"}, {"measurement": "IC50", "setting": "[4]; [16]", "value": 66, "unit": "µM"}, {"measurement": "IC50", "setting": "[4]; [17]", "value": 60, "unit": "µM"}, {"measurement": "IC50", "setting": "[5]; Example 7, Experiment 1, read-out: IC50 on Stimulated PBMC", "value": 106, "unit": "µM"}, {"measurement": "IC50", "setting": "[5]; Example 7, Experiment 2, read-out: IC50 on Stimulated PBMC", "value": 94, "unit": "µM"}, {"measurement": "IC50", "setting": "[5]; PBMC STIMULATED, Table IV, read-out: In vitro proliferation IC50", "value": 94, "unit": "µM"}, {"measurement": "IC50", "setting": "[6]; Example 7, Experiment 1", "value": 114, "unit": "µM"}, {"measurement": "IC50", "setting": "[6]; Example 7, Experiment 2", "value": 120, "unit": "µM"}, {"measurement": "Inhibition (%) on HT29", "setting": "[7]; 0.8 micromolar, 72 h", "value": 0.44, "unit": "%"}, {"measurement": "Inhibition (%) on HT29", "setting": "[7]; 4 micromolar, 72 h", "value": 14.23, "unit": "%"}, {"measurement": "Inhibition (%) on HT29", "setting": "[7]; 20 micromolar, 72 h", "value": 25.49, "unit": "%"}, {"measurement": "Inhibition (%) on HT29", "setting": "[7]; 100 micromolar, 72 h", "value": 89.77, "unit": "%"}, {"measurement": "Inhibition (%) on HT29", "setting": "[7]; 500 micromolar, 72 h", "value": 92.10, "unit": "%"}, {"measurement": "IC50", "setting": "[7]; HT29, MTT, 72 h, read-out: IC50 Calculated", "value": 34.2, "unit": "µM"}, {"measurement": "Therapeutic Index = IC50 resting PBMC/IC50 cancer cell", "setting": "[7]; HT29, Table IV", "value": 3}, {"measurement": "IC50", "setting": "[7]; HT29, Table IV, read-out: In vitro proliferation IC50", "value": 34, "unit": "µM"}, {"measurement": "Therapeutic Index = IC50 stimulated PBMC/IC50 cancer cell", "setting": "[7]; HT29, Table VII", "value": 3}, {"measurement": "Therapeutic Index (TI), Resting PBMC", "setting": "[7]; Experiment 1", "value": 3}, {"measurement": "Therapeutic Index (TI), Resting PBMC", "setting": "[7]; Experiment 2", "value": 4}, {"measurement": "Therapeutic Index (TI), Stimulated PBMC", "setting": "[7]; Experiment 1", "value": 3}, {"measurement": "Therapeutic Index (TI), Stimulated PBMC", "setting": "[7]; Experiment 2", "value": 3}, {"measurement": "Therapeutic Index = IC50 resting PBMC/IC50 cancer cell", "setting": "[8]; Table IV", "value": 9}, {"measurement": "Therapeutic Index = IC50 stimulated PBMC/IC50 cancer cell", "setting": "[8]; Table VII", "value": 9}, {"measurement": "IC50", "setting": "[8]; [19]", "value": 10, "unit": "µM"}, {"measurement": "IC50", "setting": "[8]; [20]", "value": 10, "unit": "µM"}, {"measurement": "Therapeutic Index = IC50 resting PBMC/IC50 cancer cell", "setting": "[9]; Table IV", "value": 3}, {"measurement": "Therapeutic Index = IC50 stimulated PBMC/IC50 cancer cell", "setting": "[9]; Table VII", "value": 3}, {"measurement": "IC50", "setting": "[9]; [19]", "value": 37, "unit": "µM"}, {"measurement": "IC50", "setting": "[9]; [20]", "value": 37, "unit": "µM"}, {"measurement": "Therapeutic Index = IC50 resting PBMC/IC50 cancer cell", "setting": "[10]; Table IV", "value": 2}, {"measurement": "Therapeutic Index = IC50 stimulated PBMC/IC50 cancer cell", "setting": "[10]; Table VII", "value": 2}, {"measurement": "IC50", "setting": "[10]; [19]", "value": 53, "unit": "µM"}, {"measurement": "IC50", "setting": "[10]; [20]", "value": 53, "unit": "µM"}, {"measurement": "Therapeutic Index = IC50 resting PBMC/IC50 cancer cell", "setting": "[11]; Table IV", "value": 2}, {"measurement": "Therapeutic Index = IC50 stimulated PBMC/IC50 cancer cell", "setting": "[11]; Table VII", "value": 2}, {"measurement": "IC50", "setting": "[11]; [19]", "value": 60, "unit": "µM"}, {"measurement": "IC50", "setting": "[11]; [20]", "value": 60, "unit": "µM"}, {"measurement": "Therapeutic Index = IC50 resting PBMC/IC50 cancer cell", "setting": "[12]; Table IV", "value": 3}, {"measurement": "Therapeutic Index = IC50 stimulated PBMC/IC50 cancer cell", "setting": "[12]; Table VII", "value": 3}, {"measurement": "IC50", "setting": "[12]; [20]", "value": 30, "unit": "µM"}, {"measurement": "Therapeutic Index = IC50 resting PBMC/IC50 cancer cell", "setting": "[13]; Table IV", "value": 3}, {"measurement": "Therapeutic Index = IC50 stimulated PBMC/IC50 cancer cell", "setting": "[13]; Table VII", "value": 3}, {"measurement": "IC50", "setting": "[13]; [20]", "value": 28, "unit": "µM"}, {"measurement": "Therapeutic Index = IC50 stimulated PBMC/IC50 cancer cell, AVERAGE", "setting": "[14]", "value": 4}, {"measurement": "Therapeutic Index = IC50 resting PBMC/IC50 cancer cell", "setting": "[15]", "value": 1}]}]}
